Experimental data from patent US10899763B2, “Crystalline forms of salts of fused penta-cyclic dihydrodiazepinocarbazolones, and uses thereof” (BEIGENE, LTD., priority 2017, dated 2021).
Where two headings read alike, the source gives them in different places.

Key:
[1] = Phase I clinical safety study; type: in vivo; details: BRCA1/2 mutant ovary cancer patients
Pharmacokinetics in rat = type: in vivo
Method: (§1) The species used for the pharmacokinetic studies were rat and dog. Compound 1 had good to excellent oral bioavailability (>40%) in both species. Elimination half-lives ranged from 3.1 to 5.0 hours in rats and 1.5 to 2.5 hours in dogs after oral administration. […] Steady state volume of distribution in rats and dogs was 2.4 L/kg and 1.9 L/kg, respectively.

CYP isoform = test: CYP isoforms responsible for metabolism; type: in vitro ADME
[2] = Metabolism in monkey liver microsomes; type: in vitro ADME
[3] = Nonclinical toxicity, single and repeat dose up to 28 days, rats; type: in vivo
[4] = test system: intracranial H209 xenografts; test: Intracranial H209 xenograft model; type: in vivo, Mice; details: addition of Compound 1 to TMZ
From the text: (§2) The in vivo efficacy of Compound 1 was explored in H209 SCLC xenograft model to evaluate the combination effect of Compound 1 and Temozolomide (TMZ), a DNA alkylating agent. TMZ single agent was quite effective in this model. […] However, resistance occurred quickly during the second cycle. […] In order to investigate whether Compound 1 could overcome the TMZ resistance, TMZ-resistant (TR) H209 tumors were generated by treating the H209 tumors with multiple cycles of TMZ in vivo. […] Mice with established intracranial H209 xenografts were used to further investigate the combination activity of Compound 1 and TMZ on SCLC in brain.

MDA-MB-231 cells = test: Synthetic lethality, CellTiter-Glo cell viability, MDA-MB-231; type: cell-based; details: Homo sapiens; MDA-MB-231, BRCA wildtype; read-out: EC50
Method: MDA-MB-231 cells that is not BRCA gene mutant or other homologous recombination deficient were maintained in DMEM supplemented with fetal bovine serum (10% FBS), 100 units/ml penicillin and 0.1 mg/ml streptomycin. BRCA1-deficient cell line MDA-MB-436 was maintained in RPMI-1640 supplemented with 10% FBS, 100 units/ml penicillin and 0.1 mg/ml streptomycin. Both two cell lines were kept at 95% humidity and 5% CO2 in a 37° C. incubator.
The number of tumor cells seeded per well of a 96-well plate was optimized for each cell line to ensure logarithmic growth over the 7 days treatment period. Cells were left to attach for 16 hours and then treated with specific concentrations of test compounds. Following a 7-day exposure to the compound, the growth-inhibitory activity of compounds was determined using CellTiter-Glo luminescent cell viability assay (Promega). Luminescent signal was measured using PHERAstar FS reader (BMG Labtech). Cell viability was expressed as relative to mock treatment control. EC50 values for growth inhibition were calculated by fitting dose-dependent data to the four-parameter logistic model using XLfit software.

PARP = details: for PARylation inhibition in tumor: 5.45 mg/kg single oral dose
[5] = Metabolism in rat liver microsomes; type: in vitro ADME
[6] = Tissue distribution and excretion after oral administration in rats; type: in vivo
Method: After oral administration in rats, Compound 1 was detected in all organs checked. The drug concentrations reached maximum at 0.25 to 1 hour post-dosing and decreased to less than 10% of the peak concentration at 24 hours post-dosing.
Compound 1 was primarily excreted in feces. The accumulative excretion amounts of Compound 1 in feces were 15% to 20% (up to 48 hours) after oral administration. Less than 1% of Compound 1 was excreted in urine and bile in rats.

[7] = test system: TMZ-resistant (TR) H209 tumors; test: TMZ-resistant H209-TR xenograft mouse model; type: in vivo; details: combination of Compound 1 and TMZ
From the text: as §2

[8] = Plasma protein binding, rat plasma; type: in vitro ADME
Brain penetration = details: in vivo
[9] = test system: BRCA1 mutation breast cancer xenograft; test: BRCA1 mutation breast cancer xenograft model; type: in vivo; details: at much lower dose than olaparib
CYP2B6 = test: CYP induction, CYP2B6; type: in vitro ADME, human
[10] = Metabolism in mouse liver microsomes; type: in vitro ADME
[11] = Metabolism in human liver microsomes; type: in vitro ADME
Ames assay = type: cell-based
[12] = Metabolism in dog liver microsomes; type: in vitro ADME
H209 SCLC xenograft = H209 SCLC xenograft model, combination with TMZ; type: in vivo, mouse; details: combination of Compound 1 and TMZ, multiple cycles
From the text: as §2

human CYP1A2 = test: CYP induction, CYP1A2; type: in vitro ADME
[13] = Nonclinical toxicity, single and repeat dose up to 28 days, dogs; type: in vivo
Pharmacokinetics in dog = type: in vivo
Method: as §1

CYP3A = test: CYP induction, CYP3A; type: in vitro ADME, human

Structure (SMILES): C[C@]12CCCN1CC1=NNC(=O)c3cc(F)cc4[nH]c2c1c34 [Compound 1, (R)-2-fluoro-10a-methyl-7,8,9,10,10a,11-hexahydro-5,6,7a,11-tetraazacyclohepta[def]cyclopenta-[a]fluoren-4(5H)-one]
- clinical response [1]: partial or complete responses
- accumulation following multiple oral dosing (Pharmacokinetics in rat): no accumulation
- major CYP isoform responsible for metabolism (CYP isoform): CYP3A
- metabolism rate in liver microsomes [2]: quickly
- reversibility of toxicity [3]: reversible after 28-day recovery phase
- major target organ of toxicity ([3]; up to 28 days): bone marrow
- animal survival compared to TMZ single agent [4]: significantly prolonged animal survival
- EC50 (MDA-MB-231 cells): ~9 µM
- PARylation inhibition in tumor (PARP; 0.5 hour after treatment): 98%
- PARylation inhibition in tumor (PARP; at 24 hours): 53%
- PARylation inhibition in tumor (PARP; through the first 12 hours): > 80%
- single oral dose at which potent inhibition of PARylation was observed (PARP; at 4 hours after single oral dose): ≥ 0.34 mg/kg
- concentration in tumor tissues needed to achieve at least 80% PARylation inhibition (PARP; dose titration and time course study): over 0.5 μmol/kg
- metabolism rate in liver microsomes [5]: metabolized slowly
- excreted in urine and bile [6]: Less than 1%
- drug concentration in organs as % of the peak concentration ([6]; oral, 24 hours post-dosing): less than 10%
- sensitivity of H209-TR lines to combination with TMZ [7]: remained sensitive
- Plasma protein binding (PPB) [8]: 84.9%
- brain penetration (Brain penetration): significant brain penetration
- tumor regression [9]: significantly induces tumor regression
- induction of human CYP2B6 (CYP2B6): not an inducer
- metabolism rate in liver microsomes [10]: metabolized slowly
- metabolism rate in liver microsomes [11]: metabolized slowly
- mutagenicity (Ames assay): No mutagenicity
- metabolism rate in liver microsomes [12]: metabolized slowly
- effect of combination with TMZ on resistance (H209 SCLC xenograft): significantly delayed resistance without additional toxicity
- induction of human CYP1A2 (human CYP1A2): not an inducer
- reversibility of toxicity [13]: reversible after 28-day recovery phase
- major target organ of toxicity ([13]; up to 28 days): bone marrow
- accumulation following multiple oral dosing (Pharmacokinetics in dog): no accumulation
- induction of human CYP3A (CYP3A): not an inducer
